These results are taken from patent publication EP4596537A1, “NOVEL FLUORENE DERIVATIVE COMPOUND AND USE THEREOF” (JD Bioscience Inc., priority 2022, dated 2024).

As a reminder, the inhibition is the relative decrease from the control value, in per cent. A higher inhibition goes with strong suppression.

The structures appear in SMILES notation.

This test deals with PDHE1α S293. As to the kind of experiment: In vitro PDH S293 phosphorylation inhibition (Western blot) in HEK293 cells. Type of test: cell-based, human. The settings on record: Homo sapiens, 5 hours. The method, then: HEK293 cells, which are human embryonic kidney cells, were seeded at a density of 2 × 10^6 in a 60 mm dish, and cultured for 24 hours. After replacing the medium with a medium comprising 0.5% FBS, the compounds prepared according to Examples 1 to 54 were treated at various concentrations. 5 hours later, the cells were scraped off and collected into a 15 mL conical tube and centrifuged at 1500 rpm for 10 minutes. The supernatant was discarded, the resultant was washed with 1× PBS, and transferred to a 1.5 mL e-tube, followed by centrifugation at 10,000 rpm for 5 minutes. The supernatant was discarded again, a lysis buffer was added, and the cells were lysed on ice for 30 minutes. The cells were vortexed every 10 minutes to completely lyse, and centrifuged again at 10,000 rpm for 15 minutes at 4°C, and the supernatant was collected. The protein in the supernatant was quantified using BCA technique, and the sample buffer was added to 20 µg of protein and allowed to react at 70°C for 5 minutes. The expression of PDHE1α S232, S293, S300, and total PDHE1α proteins was detected by Western blot, and the resulting PDH S293 phosphorylation inhibition is shown in Table 6. […]
For `CC(C)(C)OC(=O)c1ccc(NNC(=O)Cn2cc(-c3cc(F)cc4c3-c3ccccc3C4(O)C(F)(F)F)cn2)nc1` (centres unmarked) [Example 19, tert-butyl 6-(2-(2-(4-(2-fluoro-9-hydroxy-9-(trifluoromethyl)-9H-fluoren-4-yl)-1H-pyrazol-1-yl)acetyl)hydrazinyl)nicotinate], the inhibition at 1 µM was ≥ 50%. As for `CC(C(=O)NNc1ccccn1)n1cc(-c2cc(F)cc3c2-c2ccccc2C3(O)C(F)(F)F)cn1` (centres unmarked) [Example 8, 2-(4-(2-fluoro-9-hydroxy-9-(trifluoromethyl)-9H-fluoren-4-yl)-1H-pyrazol-1-yl)-N'-(pyridin-2-yl)propanehydrazide], the inhibition at 1 µM is ≥ 80%. To `C[C@H](C(=O)NNc1ccc(F)cc1)n1cc(-c2cc(F)cc3c2-c2ccccc2[C@@]3(O)C(F)(F)F)cn1` [Example 51, (R)-2-(4-((S)-2-fluoro-9-hydroxy-9-(trifluoromethyl)-9H-fluoren-4-yl)-1H-pyrazol-1-yl)-N'-(4-fluorophenyl)propanehydrazide] belongs ≥ 50%.

Turning to `CC(C(=O)NNc1ccc(S(C)(=O)=O)cc1F)n1cc(-c2cc(F)cc3c2-c2ccccc2C3(O)C(F)(F)F)cn1` (centres unmarked) [Example 3, N'-(2-fluoro-4-(methylsulfonyl)phenyl)-2-(4-(2-fluoro-9-hydroxy-9-(trifluoromethyl)-9H-fluoren-4-yl)-1H-pyrazol-1-yl)propanehydrazide], the inhibition at 1 µM is ≥ 50%. The figure for `CC(C(=O)NNc1ncccn1)n1cc(-c2cc(F)cc3c2-c2ccccc2C3(O)C(F)(F)F)cn1` (centres unmarked) [Example 28, 2-(4-(2-fluoro-9-hydroxy-9-(trifluoromethyl)-9H-fluoren-4-yl)-1H-pyrazol-1-yl)-N'-(pyrimidin-2-yl)propanehydrazide] is ≥ 50%. The figure for `CC(C(=O)NNc1nc2ccccc2s1)n1cc(-c2cc(F)cc3c2-c2ccccc2C3(O)C(F)(F)F)cn1` (centres unmarked) [Example 42, N'-(benzo[d]thiazol-2-yl)-2-(4-(2-fluoro-9-hydroxy-9-(trifluoromethyl)-9H-fluoren-4-yl)-1H-pyrazol-1-yl)propanehydrazide] is ≥ 50%; for `CC(C(=O)NN1CCCCCC1)n1cc(-c2cc(F)cc3c2-c2ccccc2C3(O)C(F)(F)F)cn1` (centres unmarked) [Example 54, N-(azepan-1-yl)-2-(4-(2-fluoro-9-hydroxy-9-(trifluoromethyl)-9H-fluoren-4-yl)-1H-pyrazol-1-yl)propanamide] it is ≥ 50%; for `CC(C(=O)NNc1cc2ccccc2[nH]c1=O)n1cc(-c2cc(F)cc3c2-c2ccccc2C3(O)C(F)(F)F)cn1` (centres unmarked) [Example 38, 2-(4-(2-fluoro-9-hydroxy-9-(trifluoromethyl)-9H-fluoren-4-yl)-1H-pyrazol-1-yl)-N'-(2-oxo-1,2-dihydroquinolin-3-yl)propanehydrazide] it is ≥ 50%. For `COc1cc(-c2cnn(C(C)C(=O)NNc3ccc(C(F)(F)F)cn3)c2)c2c(c1)C(O)(C(F)(F)F)c1ccccc1-2` (centres unmarked) [Example 27, 2-(4-(9-hydroxy-2-methoxy-9-(trifluoromethyl)-9H-fluoren-4-yl)-1H-pyrazol-1-yl)-N'-(5-(trifluoromethyl)pyridin-2-yl)propanehydrazide], the inhibition at 1 µM was ≥ 50%.

As to `COc1cc(-c2cnn(C(C)C(=O)NN3CCCCC3)c2)c2c(c1)C(O)(C(F)(F)F)c1ccccc1-2` (centres unmarked) [Example 52, 2-(4-(9-hydroxy-2-methoxy-9-(trifluoromethyl)-9H-fluoren-4-yl)-1H-pyrazol-1-yl)-N-(piperidin-1-yl)propanamide], the inhibition at 1 µM is ≥ 50%. Take `CC(C(=O)NNc1ccccc1Cl)n1cc(-c2cc(F)cc3c2-c2ccccc2C3(O)C(F)(F)F)cn1` (centres unmarked) [Example 6, N'-(2-chlorophenyl)-2-(4-(2-fluoro-9-hydroxy-9-(trifluoromethyl)-9H-fluoren-4-yl)-1H-pyrazol-1-yl)propanehydrazide]: the inhibition at 1 µM is ≥ 50%.
